Data taken from the NIST ThermoML archive (doi:10.1016/j.jct.2007.06.002).
“And” between values parts separate entries of the source, which are not always exact repeats. Identical values can stand only once.

Experiments:
[1] = refractive index (Na D-line) (dimensionless); settings: 298.15 K; 101.33 kPa; Liquid
[2] = 101 kPa, Liquid
[3] = xn = mol fraction of the nth substance listed; settings: 101 kPa, Liquid
[4] = refractive index (Na D-line) (dimensionless); xn = mol fraction of the nth substance listed; settings: 298.15 K, 101 kPa, Liquid

COCCOC [1,2-dimethoxyethane]
Settings | refractive index
[1] | 1.379

[2]
Settings | mass density [kg/m3]
298.15 K | 864.47
308.15 K | 853.47
318.15 K | 842.27

COCCO [2-methoxyethan-1-ol] + CCCCn1cc[n+](C)c1.F[P-](F)(F)(F)(F)F
[3], x2 = 0
Settings | mass density [kg/m3]
298.15 K | 960.05
308.15 K | 950.81
318.15 K | 941.45

Settings | refractive index
[4], x2 = 0 | 1.4004

COCCOC [1,2-dimethoxyethane] + CCCCn1cc[n+](C)c1.F[P-](F)(F)(F)(F)F
mass density [kg/m3], [3]
Settings | x2 = 0 | x2 = 0.0125 | x2 = 0.0416 | x2 = 0.1055 | x2 = 0.1219 | x2 = 0.2474 | x2 = 0.3744 | x2 = 0.4937 | x2 = 0.7092 | x2 = 0.9329
298.15 K | 864.47 | 879.28 | 912.09 | 976.53 | 991.51 | 1089.14 | 1164.22 | 1219.89 | 1296.36 | 1353.78
308.15 K | 853.47 | 868.36 | 901.37 | 966.23 | 981.31 | 1079.57 | 1155.09 | 1211.03 | 1287.72 | 1345.27
318.15 K | 842.27 | 857.25 | 890.47 | 955.79 | 971 | 1069.97 | 1145.98 | 1202.22 | 1279.25 | 1336.85

[4]
Settings | refractive index
x2 = 0 | 1.379
x2 = 0.0041 | 1.3781
x2 = 0.0125 | 1.3798
x2 = 0.0416 | 1.3859
x2 = 0.1055 | 1.3926
x2 = 0.1219 | 1.3941
x2 = 0.2474 | 1.4009
x2 = 0.3744 | 1.4043
x2 = 0.4937 | 1.4062
x2 = 0.7092 | 1.4076
x2 = 0.9329 | 1.4087

COCCOCCOC [2,5,8-trioxanonane] + CCCCn1cc[n+](C)c1.F[P-](F)(F)(F)(F)F
mass density [kg/m3], [3]
Settings | 298.15 K | 308.15 K | 318.15 K
x2 = 0 | 939.1 | 929.6 | 919.3
x2 = 0.0039 | 942.16 | 932.57 | 922.34
x2 = 0.0076 | 945.03 | 935.37 | 925.2
x2 = 0.0127 | 948.97 | 939.22 | 929.13
x2 = 0.0304 | 962.27 | 952.3 | 942.43
x2 = 0.0505 | 976.74 | 966.73 | 957.03
x2 = 0.1003 | 1010.23 | 1000.46 | 990.93
x2 = 0.1617 | 1047.81 | 1038.53 | 1028.98
x2 = 0.207 | 1073.6 | 1064.59 | 1055.02
x2 = 0.3024 | 1124.55 | 1115.44 | 1106.04
x2 = 0.4018 | 1173.96 | 1164.58 | 1155.65
x2 = 0.5023 | 1219.47 | 1210.5 | 1202.05
x2 = 0.5623 | 1243.6 | 1235.27 | 1226.97
x2 = 0.7197 | 1292.24 | 1286.05 | 1277.69
x2 = 0.9477 | 1345.16 | 1336.93 | 1328.47
x2 = 0.9842 | 1359.24 | 1351.31 | 1342.85
x2 = 0.9952 | 1365.36 | 1356.87 | 1348.47

[4]
Settings | refractive index
x2 = 0 | 1.4058
x2 = 0.0039 | 1.4063
x2 = 0.0076 | 1.4065
x2 = 0.0127 | 1.407
x2 = 0.0304 | 1.4081
x2 = 0.0505 | 1.4092
x2 = 0.1003 | 1.4113
x2 = 0.1617 | 1.4141
x2 = 0.207 | 1.4149
x2 = 0.3024 | 1.4148
x2 = 0.4018 | 1.4142
x2 = 0.5023 | 1.4138
x2 = 0.5623 | 1.4123
x2 = 0.7197 | 1.4098
x2 = 0.9477 | 1.4094
x2 = 0.9842 | 1.4089

CCCCn1cc[n+](C)c1.F[P-](F)(F)(F)(F)F [1-butyl-3-methylimidazolium hexafluorophosphate] + COCCOC
[3], x1 = 1
Settings | mass density [kg/m3]
298.15 K | 1367.88
308.15 K | 1359.33
318.15 K | 1350.87

Settings | refractive index
[4], x1 = 1 | 1.4089

COCCOCCOC [2,5,8-trioxanonane]
Settings | refractive index
[1] | 1.4058

[2]
Settings | mass density [kg/m3]
298.15 K | 939.1
308.15 K | 929.6
318.15 K | 919.3

CCCCn1cc[n+](C)c1.F[P-](F)(F)(F)(F)F [1-butyl-3-methylimidazolium hexafluorophosphate]
Settings | refractive index
[1] | 1.4089 and 1.4058

[2]
Settings | mass density [kg/m3]
298.15 K | 1367.88
308.15 K | 1359.33
318.15 K | 1350.87

CCCCn1cc[n+](C)c1.F[P-](F)(F)(F)(F)F [1-butyl-3-methylimidazolium hexafluorophosphate] + COCCOCCOC
[3], x1 = 1
Settings | mass density [kg/m3]
298.15 K | 1367.88
308.15 K | 1359.33
318.15 K | 1350.87

Settings | refractive index
[4], x1 = 1 | 1.4058

CCCCn1cc[n+](C)c1.F[P-](F)(F)(F)(F)F [1-butyl-3-methylimidazolium hexafluorophosphate] + COCCO
mass density [kg/m3], [3]
Settings | 298.15 K | 308.15 K | 318.15 K
x1 = 0.0037 | 964.55 | 962.53 | 945.96
x1 = 0.0078 | 969.43 | 967.34 | 950.88
x1 = 0.012 | 974.36 | 972.19 | 955.82
x1 = 0.0354 | 1000.13 | 997.66 | 981.7
x1 = 0.0801 | 1042.78 | 1039.97 | 1024.48
x1 = 0.1468 | 1094.24 | 1091.12 | 1076.09
x1 = 0.2542 | 1157.35 | 1153.41 | 1139.53
x1 = 0.396 | 1219.08 | 1213.6 | 1201.72
x1 = 0.6104 | 1284.64 | 1277.88 | 1267.48
x1 = 0.8127 | 1328.13 | 1320.65 | 1311.1
x1 = 0.8961 | 1344.77 | 1336.68 | 1327.9
x1 = 0.9345 | 1352.85 | 1344.49 | 1336
x1 = 0.9749 | 1361.9 | 1353.35 | 1344.99
x1 = 1 | 1367.88 | 1359.33 | 1350.87

[4]
Settings | refractive index
x1 = 0.0037 | 1.4006
x1 = 0.0078 | 1.401
x1 = 0.012 | 1.4013
x1 = 0.0354 | 1.403
x1 = 0.0801 | 1.405
x1 = 0.1468 | 1.4065
x1 = 0.2542 | 1.4078
x1 = 0.396 | 1.4083
x1 = 0.6104 | 1.4086
x1 = 0.8127 | 1.4086
x1 = 0.8961 | 1.4089
x1 = 0.9345 | 1.409
x1 = 0.9749 | 1.409
x1 = 1 | 1.4089

COCCO [2-methoxyethan-1-ol]
Settings | refractive index
[1] | 1.4004

[2]
Settings | mass density [kg/m3]
298.15 K | 960.05
308.15 K | 950.81
318.15 K | 941.45
